Literature values as cited in patent US20260337208A1, “HETEROCYCLIC DERIVATIVES AS JANUS KINASE INHIBITORS” (CHIESI FARMACEUTICI S.P.A., priority 2022, published 2026).

Columns and labels:
[1] = cited from earlier work; for admission rate of the intensive care unit / incidence of acute respiratory distress syndrome (ARDS) / risk of mortality / use of invasive mechanical ventilation: COVID-19
[2] = RA patients, including a subgroup with interstitial lung disease; cited from earlier work
[3] = in vivo; cited from earlier work
[4] = in combination with nintedanib; case report; cited from earlier work
[5] = tested on: house dust mite mouse model of asthma; conditions: formulated for being administered as aerosol; cited from earlier work
[6] = bleomycin-induced fibrosis mouse model; cited from earlier work

SMILES | admission rate of the intensive care unit [1] | incidence of acute respiratory distress syndrome (ARDS) [1] | risk of mortality [1] | use of invasive mechanical ventilation [1] | biomarkers' levels of lung fibrosis and inflammation [2] | safety as immune modulator [2] | preventive effect in experimental dermal and pulmonary fibrosis [3] | efficacy and safety in aggressive interstitial lung disease [4] | eosinophils count [5] | clinical symptoms and chest computed tomography images ([1]; COVID-19 patients) | fibrotic lesions in lung [6] | levels of fibrotic molecular markers [6]
CCS(=O)(=O)N1CC(CC#N)(n2cc(-c3ncnc4[nH]ccc34)cn2)C1 [Baricitinib, baricitinib] | borderline impact | borderline impact | reduced risk of mortality | reduced the use of invasive mechanical ventilation | reduces the biomarkers' levels of lung fibrosis and inflammation | safe immune modulator |  |  |  |  |  | 
C[C@@H]1CCN(C(=O)CC#N)C[C@@H]1N(C)c1ncnc2[nH]ccc12 [tofacitinib] |  |  |  |  |  |  | acted as a preventive agent | corroborated the efficacy and safety | reduced eosinophils count |  |  | 
N#CC[C@H](C1CCCC1)n1cc(-c2ncnc3[nH]ccc23)cn1 [Ruxolitinib, ruxolitinib] | borderline impact | borderline impact | reduced risk of mortality | reduced the use of invasive mechanical ventilation |  |  |  |  |  | improved the clinical symptoms and chest computed tomography images | ameliorated the fibrotic lesions in lung | reduced levels of fibrotic molecular markers
